Active and inactive are the calls of the source. The rule behind the calls is not given here.
Experiments:
[1] = Half life in ICR mouse at 0.5 mg/kg, iv measured after 0.0833 to 120 hrs by LC-MS-MS analysis; type: ADME, organism-based; conditions: in vivo
[2] = Clearance in ICR mouse at 0.5 mg/kg, iv measured after 0.0833 to 120 hrs by LC-MS-MS analysis; type: ADME, organism-based; conditions: in vivo
[3] = Oral bioavailability in ICR mouse at 2 mg/kg measured after 0.0833 to 120 hrs by LC-MS-MS analysis; type: ADME, organism-based; conditions: in vivo
[4] = Half life in ICR mouse at 2 mg/kg, po measured after 0.0833 to 120 hrs by LC-MS-MS analysis; type: ADME, organism-based; conditions: in vivo
[5] = Volume of distribution at steady state in ICR mouse at 0.5 mg/kg, iv measured after 0.0833 to 120 hrs by LC-MS-MS analysis; type: ADME, organism-based; conditions: in vivo, read-out: Vdss
[6] = AUC (0 to t) in ICR mouse at 2 mg/kg, po measured after 0.0833 to 120 hrs by LC-MS-MS analysis; type: ADME, organism-based; set-up: time upper 120 hr, time lower 0.083 hr, dose 2 mg/kg, route oral; conditions: in vivo
[7] = Intrinsic clearance in mouse liver microsomes at 0.5 uM incubated for 0.5 to 60 mins by LC-MS/MS analysis; type: ADME, Microsome; conditions: read-out: CLH
[8] = Cmax in ICR mouse at 2 mg/kg, po measured after 0.0833 to 120 hrs by LC-MS-MS analysis; type: ADME, organism-based; set-up: dose 2 mg/kg, route oral; conditions: in vivo
Mus musculus [9] = test: Antidiabetic activity in ob/ob mouse assessed as reduction in random blood glucose levels at 30 mg/kg, po dosed once every three days for 31 days; type: functional, organism-based
Mus musculus [10] = test: Antidiabetic activity in ob/ob mouse assessed as reduction in decrease in HbA1c level at 3 to 30 mg/kg, po dosed once every three days for 31 day; type: functional, organism-based
[11] = Toxicity in ob/ob mouse assessed as induction of body weight gain at 30 mg/kg, po dosed once every three days for 31 days; type: organism-based; conditions: in vivo, 744 h
[12] = biological target: Dipeptidyl peptidase 4 (Mus musculus) (UniProt P28843); test: Ex-vivo inhibition of DPP4 in plasma isolated from ob/ob mouse assessed as time duration during which DPP4 inhibition rate stays above 80% treated at 30 mg/kg, po measured after 2 to 72 hrs by fluorescence based assay; type: functional, organism-based
[13] = biological target: Dipeptidyl peptidase 4 (Mus musculus) (UniProt P28843); test: Ex-vivo inhibition of DPP4 in plasma isolated from ob/ob mouse treated at 30 mg/kg, po measured after 2 to 72 hrs by fluorescence based assay; type: functional, organism-based
Mus musculus [14] = test: Antidiabetic activity in ob/ob mouse assessed as reduction in decrease in HbA1c level at 30 mg/kg, po dosed once every three days for 31 day relative to control; type: functional; set-up: scale not given: the % may be the effect or the level left

Sequence of Dipeptidyl peptidase 4 (Mus musculus) (P28843 whole entry, looked up): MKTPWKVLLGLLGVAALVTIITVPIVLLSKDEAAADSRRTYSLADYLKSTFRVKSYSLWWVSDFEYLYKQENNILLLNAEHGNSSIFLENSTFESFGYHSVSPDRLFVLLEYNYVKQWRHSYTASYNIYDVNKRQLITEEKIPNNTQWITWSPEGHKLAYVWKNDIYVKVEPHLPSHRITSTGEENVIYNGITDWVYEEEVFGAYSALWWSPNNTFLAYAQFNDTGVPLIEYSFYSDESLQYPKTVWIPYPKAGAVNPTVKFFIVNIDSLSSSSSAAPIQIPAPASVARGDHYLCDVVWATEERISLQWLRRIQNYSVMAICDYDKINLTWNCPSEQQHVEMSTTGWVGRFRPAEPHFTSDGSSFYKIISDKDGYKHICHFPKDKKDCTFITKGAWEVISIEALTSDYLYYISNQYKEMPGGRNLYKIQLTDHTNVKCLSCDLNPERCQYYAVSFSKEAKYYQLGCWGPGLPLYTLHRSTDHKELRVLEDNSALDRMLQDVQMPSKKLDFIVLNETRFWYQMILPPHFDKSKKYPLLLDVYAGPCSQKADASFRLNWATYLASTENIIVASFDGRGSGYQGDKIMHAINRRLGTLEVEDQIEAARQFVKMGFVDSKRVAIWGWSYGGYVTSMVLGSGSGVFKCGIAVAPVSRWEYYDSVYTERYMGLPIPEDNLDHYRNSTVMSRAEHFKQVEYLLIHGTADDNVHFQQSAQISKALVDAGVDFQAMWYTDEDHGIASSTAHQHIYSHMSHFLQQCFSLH

SMILES	half-life [1]	clearance [2]	bioavailability [3]	half-life [4]	Vd [5]	AUC(0-t) [6]	microsomal CLint at 0.5 µM [7]	Cmax [8]	Activity (Mus musculus [9])	Activity (Mus musculus [10])	Activity [11]	TIME [12]	inhibition [13]	Activity (Mus musculus [14])
CS(=O)(=O)n1cc2c(n1)CN([C@H]1CO[C@H](c3cc(F)ccc3F)[C@@H](N)[C@H]1F)C2	20.9 h	0.645 mL/min/kg	45.4%	19.2 h	0.957 L/kg	23500 ng·h/mL	1.2 µL/min/mg	1580 ng/mL						
CS(=O)(=O)n1cc2c(n1)CN([C@@H]1C[C@H](N)[C@@H](c3cc(F)c(F)cc3F)O[C@@H]1C(F)(F)F)C2	19.7 h	1.44 mL/min/kg	114%	20 h	2.27 L/kg	26500 ng·h/mL	1.17 µL/min/mg	999 ng/mL						
CS(=O)(=O)n1cc2c(n1)CN([C@H]1CO[C@H](c3cc(F)ccc3F)[C@@H](N)C1)C2 [OMARIGLIPTIN]	3.05 h	7.39 mL/min/kg	95%	4.65 h	1.65 L/kg	4100 ng·h/mL	1.89 µL/min/mg	798 ng/mL	Active	Active	Toxic	18 h	Active	13.6%

From ChEMBL document CHEMBL4613324, “Design, Synthesis, and Evaluation of a Series of Novel Super Long-Acting DPP-4 Inhibitors for the Treatment of Type 2 Diabetes” (J Med Chem, 2020)
